Assay results as given in patent US20120251613A1, “METHOD FOR TREATING VITILIGO WITH A PROSTAGLANDIN ANALOGUE” (AGILA SPECIALITIES PVT. LTD., priority 2011, published 2012).
Entries after “also recorded” stand apart in the source; their conditions may differ.

Key:
Patients with vitiligo [1] = test: Clinical efficacy of topical bimatoprost solution for treatment of vitiligo: degree of repigmentation; type: in vivo, human; settings: for number of patients with Complete repigmentation (100%) / number of patients with Excellent repigmentation (75-99%) / number of patients with Marked repigmentation (50-74%) / number of patients with Moderate repigmentation (25-49%) / number of patients with Nil/mild repigmentation (less than 25%) / Repigmentation of body sites: number with Complete repigmentation (100%) / Repigmentation of body sites: number with Excellent repigmentation (75-99%) / Repigmentation of body sites: number with Marked repigmentation (50-74%) / Repigmentation of body sites: number with Moderate repigmentation (25-49%) / Repigmentation of body sites: number with Nil/mild repigmentation (less than 25%): 0.03% solution topically twice a day, 4 months
Protocol: 20 Patients with vitiligo were treated with topical bimatoprost solution for 4 months to elucidate its efficacy and tolerability in stable vitiligo. The solution contained bimatoprost in a concentration of 0.3 mg/mL (0.03%), benzalkonium chloride in a concentration of 0.05 mg/mL, and water. The solution has a pH of between 6.8 and 7.8, and contains sodium chloride, a dibasic sodium phosphate/citric acid buffer, and sodium hydroxide and/or hydrochloric acid to adjust the pH. The subjects had suffered from vitiligo for a period of between 8 and 80 months. The average period of depigmentation for the patients was 26.7 months. All the patients were examined by an independent observer. The percentage of repigmentation in form of color or size changes and folliculocentric/peripheral repigmentation were observed. […] Specifically, Nil/Mild repigmentation means that the skin has undergone less than 25% repigmentation, i.e., less than 25% of the skin surface has repigmented or, if repigmentation is observed, the skin has regained less than 25% of its natural color. Moderate repigmentation means that the skin has undergone 25-49% repigmentation, as measured by repigmented surface are and/or skin color. Marked repigmentation means that the skin has undergone 50-74% repigmentation, and excellent repigmentation means that the skin has undergone 75-99% repigmentation. Complete response means that repigmented skin lesions from vitiligo are indistinguishable from skin which has never been depigmented. The repigmentation effect of the composition starts rapidly within one to two months after starting the treatment. Topical treatment with bimatoprost is continued for a period of at least two months. If no response is observed to treatment with topical bimatoprost, treatment is stopped at the end of two months. If a mild or moderate response to treatment with topical bimatoprost is observed, therapy is continued for at least 4 months, while observing the patient for any further delayed improvement. In cases where complete or excellent response to topical bimatoprost is observed, treatment is stopped to determine whether relapse, i.e., whether loss of pigmentation is observed upon cessation of bimatoprost therapy. The frequency of application of the topical bimatoprost as an aqueous solution is twice a day.

Patients with vitiligo [2] = test: Follow-up for 6 months after stopping bimatoprost treatment: positive response and relapse; type: in vivo, human; settings: for Response positive (at least 25% repigmentation), number of patients / Response positive, ratio to total number of patients: 6 months after stopping therapy; for Relapse/loss of pigment, number of patients / Relapse/loss of pigment, percentage of patients with positive response: 6 months following cessation of therapy
From the text: The hypothetical mechanism of repigmentation would be of increased melanogenesis in dermal melanocytes together with increased transfer of melanin granules to the basal melanocytes.

Patients with vitiligo [3] = test: Tolerability / side effects during therapy with topical bimatoprost; type: in vivo, human
Protocol: 20 Patients with vitiligo were treated with topical bimatoprost solution for 4 months to elucidate its efficacy and tolerability in stable vitiligo. The solution contained bimatoprost in a concentration of 0.3 mg/mL (0.03%), benzalkonium chloride in a concentration of 0.05 mg/mL, and water. The solution has a pH of between 6.8 and 7.8, and contains sodium chloride, a dibasic sodium phosphate/citric acid buffer, and sodium hydroxide and/or hydrochloric acid to adjust the pH.
All the patients were examined by an independent observer. The percentage of repigmentation in form of color or size changes and folliculocentric/peripheral repigmentation were observed.

[4] = cited from earlier work
[5] = site Mucosae (mucosal vitiligo or non-mucosal vitiligo progressed to mucosal surfaces)
[6] = vitiliginous lesions on the face or neck
[7] = vitiliginous lesions on the trunk or extremities

For `CCNC(=O)CCCC=CCC1C(O)CC(O)C1C=CC(O)CCc1ccccc1` (stereo not drawn) [bimatoprost, 7-[3,5-dihydroxy-2-(3-hydroxy-5-phenyl-pent-1-enyl)-cyclopentyl]-N-ethyl-hept-5-enamide], the “complete clearance of vitiligo lesions (100% repigmentation), percentage of patients” value (Patients with vitiligo [1]; 20 patients) was 30%, the “marked to excellent repigmentation (50-99%), percentage of patients” value (Patients with vitiligo [1]; 20 patients) was 55% and the “patients in whom repigmentation was observed, percentage” value (Patients with vitiligo [1]; 20 patients, all types of vitiligo) was 70%. The “number of patients with Complete repigmentation (100%)” value (from here on “number of patients … (100%)”) (Patients with vitiligo [1]; Focal vitiligo) was 1, the “number of patients with Excellent repigmentation (75-99%)” value (from here on “number of patients … (75-99%)”) (Patients with vitiligo [1]; Focal vitiligo) was 4 and the “number of patients with Marked repigmentation (50-74%)” value (“number of patients … (50-74%)” for short) (Patients with vitiligo [1]; Focal vitiligo) was 1. The “number of patients with Moderate repigmentation (25-49%)” value (from here on “number of patients … (25-49%)”) (Patients with vitiligo [1]; Focal vitiligo) was 0, the “number of patients with Nil/mild repigmentation (less than 25%)” value (Patients with vitiligo [1]; Focal vitiligo) was 0 and the “number of patients … (100%)” value (Patients with vitiligo [1]; Mucosal vitiligo) was 0. The “number of patients … (75-99%)” value (Patients with vitiligo [1]; Mucosal vitiligo) was 0, the “number of patients … (50-74%)” value (Patients with vitiligo [1]; Mucosal vitiligo) was 0 and the “number of patients … (25-49%)” value (Patients with vitiligo [1]; Mucosal vitiligo) was 0. For the same molecule, the “number of patients with Nil/mild repigmentation (less than 25%)” value (Patients with vitiligo [1]; Mucosal vitiligo) was 2, the “number of patients … (100%)” value (Patients with vitiligo [1]; Segmental vitiligo) was 1 and the “number of patients … (75-99%)” value (Patients with vitiligo [1]; Segmental vitiligo) was 2. The “number of patients … (50-74%)” value (Patients with vitiligo [1]; Segmental vitiligo) was 1, the “number of patients … (25-49%)” value (Patients with vitiligo [1]; Segmental vitiligo) was 0 and the “number of patients with Nil/mild repigmentation (less than 25%)” value (Patients with vitiligo [1]; Segmental vitiligo) was 0. The “mean onset of pigmentation after initiation of therapy” value (Patients with vitiligo [1]; all patients) was 2 months, the “patients treated with at least 50% repigmentation” value (Patients with vitiligo [1]; all patients treated) was 75% and the “response of lesions, in words” value (Patients with vitiligo [1]; lesions on mucosal surfaces or on the extremities) was “respond poorly”. The “vitiliginous lesions showing at least 50% repigmentation” value (Patients with vitiligo [1]; lesions on the face and neck) was “all vitiliginous lesions”, the “vitiliginous lesions showing at least 50% repigmentation” value (Patients with vitiligo [1]; lesions on the trunk) was 66% and the “repigmentation commencing after initiation of therapy” value (Patients with vitiligo [1]; new patients (vitiligo for 6 months or less)) was “four to six”. For the same molecule, the “patients in whom repigmentation was observed, number” value (Patients with vitiligo [1]; out of 20 patients, all types of vitiligo) was 14, the “repigmentation, in words” value (Patients with vitiligo [1]; remaining patients with generalized vitiligo) was “little or no repigmentation” and the “patients exhibiting at least 50% repigmentation (at least marked)” value (Patients with vitiligo [1]; segmental or focal vitiligo) was “all patients”. The “Repigmentation of body sites: number with Complete repigmentation (100%)” value (“Repigmentation of body sites: number … (100%)” below) (Patients with vitiligo [1]; site Extremities) was 0, the “Repigmentation of body sites: number with Excellent repigmentation (75-99%)” value (shortened to “Repigmentation of body sites: number … (75-99%)”) (Patients with vitiligo [1]; site Extremities) was 0 and the “Repigmentation of body sites: number with Marked repigmentation (50-74%)” value (“Repigmentation of body sites: number … (50-74%)” below) (Patients with vitiligo [1]; site Extremities) was 0. The “Repigmentation of body sites: number with Moderate repigmentation (25-49%)” value (shortened to “Repigmentation of body sites: number … (25-49%)”) (Patients with vitiligo [1]; site Extremities) was 2, the “Repigmentation of body sites: number with Nil/mild repigmentation (less than 25%)” value (Patients with vitiligo [1]; site Extremities) was 2 and the “Repigmentation of body sites: number … (100%)” value (Patients with vitiligo [1]; site Head & neck) was 4. For the same molecule, the “Repigmentation of body sites: number … (75-99%)” value (Patients with vitiligo [1]; site Head & neck) was 4, the “Repigmentation of body sites: number … (50-74%)” value (Patients with vitiligo [1]; site Head & neck) was 2 and the “Repigmentation of body sites: number … (25-49%)” value (Patients with vitiligo [1]; site Head & neck) was 0. The “Repigmentation of body sites: number with Nil/mild repigmentation (less than 25%)” value (Patients with vitiligo [1]; site Head & neck) was 0, the “Repigmentation of body sites: number … (100%)” value (Patients with vitiligo [1]; [5]) was 0 and the “Repigmentation of body sites: number … (75-99%)” value (Patients with vitiligo [1]; [5]) was 0. The “Repigmentation of body sites: number … (50-74%)” value (Patients with vitiligo [1]; [5]) was 0, the “Repigmentation of body sites: number … (25-49%)” value (Patients with vitiligo [1]; [5]) was 2 and the “Repigmentation of body sites: number with Nil/mild repigmentation (less than 25%)” value (Patients with vitiligo [1]; [5]) was 2. The “Repigmentation of body sites: number … (100%)” value (Patients with vitiligo [1]; site Trunk) was 0, the “Repigmentation of body sites: number … (75-99%)” value (Patients with vitiligo [1]; site Trunk) was 2 and the “Repigmentation of body sites: number … (50-74%)” value (Patients with vitiligo [1]; site Trunk) was 2. For the same molecule, the “Repigmentation of body sites: number … (25-49%)” value (Patients with vitiligo [1]; site Trunk) was 0, the “Repigmentation of body sites: number with Nil/mild repigmentation (less than 25%)” value (Patients with vitiligo [1]; site Trunk) was 2 and the “start of the repigmentation effect after starting the treatment” value (Patients with vitiligo [1]; topical, twice a day) was “one to two”. For the same molecule, the “number of patients … (100%)” value (Patients with vitiligo [1]; vitiligo Vulgaris) was 2, the “number of patients … (75-99%)” value (Patients with vitiligo [1]; vitiligo Vulgaris) was 2 and the “number of patients … (50-74%)” value (Patients with vitiligo [1]; vitiligo Vulgaris) was 1. The “number of patients … (25-49%)” value (Patients with vitiligo [1]; vitiligo Vulgaris) was 0, the “number of patients with Nil/mild repigmentation (less than 25%)” value (Patients with vitiligo [1]; vitiligo Vulgaris) was 3 and the “repigmentation, in words” value (Patients with vitiligo [1]; vitiligo restricted to the mucosal surfaces or to the extremities) was “little or no repigmentation”. The “patients exhibiting at least 50% repigmentation (at least marked)” value (Patients with vitiligo [1]; vitiligo vulgaris (generalized vitiligo)) was “More than 60%”, the “Response positive (at least 25% repigmentation), number of patients” value (Patients with vitiligo [2]; Extremities, 4 patients) was 2 and the “Response positive, ratio to total number of patients” value (shortened to “Response positive, ratio”) (Patients with vitiligo [2]; Extremities, 4 patients) was 50%. The “Relapse/loss of pigment, number of patients” value (Patients with vitiligo [2]; Extremities) was 1, the “Relapse/loss of pigment, percentage of patients with positive response” value (Patients with vitiligo [2]; Extremities) was 50% and the “Response positive (at least 25% repigmentation), number of patients” value (Patients with vitiligo [2]; Face and neck, 10 patients) was 10. The “Response positive, ratio” value (Patients with vitiligo [2]; Face and neck, 10 patients) was 100%, the “Relapse/loss of pigment, number of patients” value (Patients with vitiligo [2]; Face and neck) was 1 and the “Relapse/loss of pigment, percentage of patients with positive response” value (Patients with vitiligo [2]; Face and neck) was 10%. For the same molecule, the “Response positive (at least 25% repigmentation), number of patients” value (Patients with vitiligo [2]; Focal, 6 patients) was 6, the “Response positive, ratio” value (Patients with vitiligo [2]; Focal, 6 patients) was 100% and the “Relapse/loss of pigment, number of patients” value (Patients with vitiligo [2]; Focal) was 0. For the same molecule, the “Response positive (at least 25% repigmentation), number of patients” value (Patients with vitiligo [2]; Mucosal, 2 patients) was 0, the “Relapse/loss of pigment, number of patients” value (Patients with vitiligo [2]; Mucosal) was 0 and the “Response positive (at least 25% repigmentation), number of patients” value (Patients with vitiligo [2]; Segmental, 4 patients) was 4. The “Response positive, ratio” value (Patients with vitiligo [2]; Segmental, 4 patients) was 100%, the “Relapse/loss of pigment, number of patients” value (Patients with vitiligo [2]; Segmental) was 0 and the “Response positive (at least 25% repigmentation), number of patients” value (Patients with vitiligo [2]; Trunk, 6 patients) was 4. For the same molecule, the “Response positive, ratio” value (Patients with vitiligo [2]; Trunk, 6 patients) was 66%, the “Relapse/loss of pigment, number of patients” value (Patients with vitiligo [2]; Trunk) was 2 and the “Relapse/loss of pigment, percentage of patients with positive response” value (Patients with vitiligo [2]; Trunk) was 50%. For the same molecule, the “Response positive (at least 25% repigmentation), number of patients” value (Patients with vitiligo [2]; Vulgaris, 8 patients) was 4, the “Response positive, ratio” value (Patients with vitiligo [2]; Vulgaris, 8 patients) was 50% and the “Relapse/loss of pigment, number of patients” value (Patients with vitiligo [2]; Vulgaris) was 1. The “Relapse/loss of pigment, percentage of patients with positive response” value (Patients with vitiligo [2]; Vulgaris) was 25%, the “patients exhibiting a positive response 6 months after stopping therapy” value (Patients with vitiligo [2]; focal or segmental vitiligo) was 100% and the “patients with positive response showing measurable depigmentation after 6 months” value (Patients with vitiligo [2]; focal or segmental vitiligo) was “none”. For the same molecule, the “patients exhibiting a positive response 6 months after stopping therapy” value (Patients with vitiligo [2]; generalized vitiligo (vitiligo vulgaris), eight patients) was 50%, the “patients exhibiting a positive response 6 months after stopping therapy, number” value (Patients with vitiligo [2]; generalized vitiligo (vitiligo vulgaris), of eight patients) was “four” and the “patients with positive response showing measurable depigmentation after 6 months, number” value (Patients with vitiligo [2]; generalized vitiligo, of four responders) was “one”. For the same molecule, the “patients exhibiting a positive response 6 months after stopping therapy” value (Patients with vitiligo [2]; [6]) was 100%, the “patients with positive response showing measurable depigmentation after 6 months” value (Patients with vitiligo [2]; [6]) was “none” and the “patients exhibiting a positive response 6 months after stopping therapy” value (Patients with vitiligo [2]; [7]) was 60%. The “patients with positive response showing measurable depigmentation after 6 months” value (Patients with vitiligo [2]; [7]) was 60%, the “severe adverse reactions during the trial” value (Patients with vitiligo [3]; 20 patients, 0.03% solution topically, 4 months) was “No severe adverse reactions” and the “most commonly observed side effect” value (Patients with vitiligo [3]; after application, especially on the lips) was “transient burning sensation”. For the same molecule, the “incidence of side-effects during therapy” value (Patients with vitiligo [3]; topical, 20 patients) was 20%, the “severity of side effects” value (Patients with vitiligo [3]; topical, 20 patients) was “mild” and the solubility in water [4] was “only slightly soluble; also recorded: very low”.
